Reference: ChEMBL document CHEMBL1687865, “Antifungal lipopeptides from Bacillus amyloliquefaciens strain BO7” (J Nat Prod, 2011)
Values after ≈ are worked out from the molar mass of the structure shown. *1 amine or outer side, *2 acyl side, *3 side chain or, on linkers, in order; H or OH if unused. Where a SMILES comes first, the peptide text is derived from it. Bridges are numbered along the chain shown (N, C = ends). X1 = CCCCCCCCCCCCCCC[C@H](CC(=O)[*:1])O[*:2]; X2 = CCCCCCCCCCCCCC[C@H](CC(=O)[*:1])O[*:2]; X3 = CCCCCCCCCCCCC[C@H](CC(=O)[*:1])O[*:2]

How the values were obtained:
[1] = Antifungal activity against Fusarium oxysporum f. sp. lycopersici 4287 assessed as reduction in mycelium growth at 50 ppm after 72 hrs by spectrophotometric analysis; type: functional; parameters: scale not given: the % may be the effect or the level left
[2] = test system: Penicillium digitatum; assay: […] activity against Penicillium digitatum; type: functional, organism-based
[3] = Antifungal activity against Fusarium oxysporum f. sp. lycopersici 4287 assessed as reduction in mycelium growth at 100 ppm after 72 hrs by spectrophotometric analysis; type: functional; parameters: scale not given: the % may be the effect or the level left

| EC50 [2] [µg/mL] | Structure (SMILES) | Activity [1] [%] | Activity [3] [%] |
| --- | --- | --- | --- |
| 88.5 (≈ 84.2 µM) | CCCCCCCCCCCCCCC[C@@H]1CC(=O)N[C@@H](CCC(=O)O)C(=O)N[C@@H](CC(C)C)C(=O)N[C@@H](CC(C)C)C(=O)N[C@@H](C)C(=O)N[C@@H](CC(=O)O)C(=O)N[C@@H](CC(C)C)C(=O)N[C@@H](CC(C)C)C(=O)O1 (ELLADLL; linker N-C via X1) | 25 | 56 |
|  | CCCCCCCCCCCCCC[C@@H]1CC(=O)N[C@@H](CCC(=O)O)C(=O)N[C@@H](CC(C)C)C(=O)N[C@@H](CC(C)C)C(=O)N[C@@H](C)C(=O)N[C@@H](CC(=O)O)C(=O)N[C@@H](CC(C)C)C(=O)N[C@@H](CC(C)C)C(=O)O1 (ELLADLL; linker N-C via X2) |  | 11 |
|  | CCCCCCCCCCCCC[C@@H]1CC(=O)N[C@@H](CCC(=O)O)C(=O)N[C@@H](CC(C)C)C(=O)N[C@@H](CC(C)C)C(=O)N[C@@H](C)C(=O)N[C@@H](CC(=O)O)C(=O)N[C@@H](CC(C)C)C(=O)N[C@@H](CC(C)C)C(=O)O1 (ELLADLL; linker N-C via X3) |  | 29 |
